Measured values: US10125148B2, “Pyrazolopyrimidine macrocycles as inhibitors of human immunodeficiency virus replication” (priority 2014, dated 2018)
Read-outs that look alike come from different tables or passages of the source.

Columns and labels:
[1] = rcm bond
[2] = from C=CCOC1(C)CCN(c2c([C@H](OC(C)(C)C)C(=O)OC)c(C)nc3cc(-c4cccc(-c5cc(CC)ccc5O[C@@H](C)CC=C)c4)nn23)CC1; rcm bond; 20-membered ring; Hoveyda-Grubbs II (name truncated)/CuI; DCE; 1.09 mM; 3.0 h
NL-RLuc virus = test: Inhibition of HIV replication (NL-RLuc luciferase reporter virus in MT-2 cells); type: cell-based; conditions: Human immunodeficiency virus 1, MT2, 120 h

**Q.** For `CCOC(=O)[C@@H](OC(C)(C)C)c1c(C)nc2cc3nn2c1N1CCC(C)(CC1)OC/C=C/C(C)Oc1cc(F)ccc1-c1cccc-3c1` (stereo partly drawn), which ring closure, isolated yield ([1]; from C=CCOC1(C)CCN(c2c([C@H](OC(C)(C)C)C(=O)OCC)c(C)nc3cc(-c4cccc(-c5ccc(F)cc5O[C@@H](C)C=C)c4)nn23)CC1, 19-membered ring, Grubbs II (0.1 eq)/CuI, DCE, 1.27 mM, 2.0 h) is on record?
**A.** 96%

**Q.** With `CCOC(=O)[C@@H](OC(C)(C)C)c1c(C)nc2cc3nn2c1N1CCC(C)(CC1)OC/C=C/[C@H](C)Oc1cc(C)cc(F)c1-c1cccc-3c1` as the compound, how does the ring closure, isolated yield ([1]; from C=CCOC1(C)CCN(c2c([C@H](OC(C)(C)C)C(=O)OCC)c(C)nc3cc(-c4cccc(-c5c(F)cc(C)cc5O[C@@H](C)C=C)c4)nn23)CC1, 19-membered ring, Grubbs II (0.1 eq)/CuI, DCE, 1.09 mM, 2.0 h) read?
**A.** 72%

**Q.** Which ring closure, isolated yield ([1]; from C=CCOC1(C)CCN(c2c([C@H](OC(C)(C)C)C(=O)OCC)c(C)nc3cc(-c4cccc(-c5ccc(C)cc5O[C@@H](C)C=C)c4)nn23)CC1, 19-membered ring, Grubbs II (0.1 eq)/CuI, DCE, 1.32 mM, 2.0 h) does the source give for `CCOC(=O)[C@@H](OC(C)(C)C)c1c(C)nc2cc3nn2c1N1CCC(C)(CC1)OC/C=C/[C@H](C)Oc1cc(C)ccc1-c1cccc-3c1` here?
**A.** 69.5%

**Q.** Which ring closure, isolated yield ([1]; from C=CCOC1(C)CCN(c2c([C@H](OC(C)(C)C)C(=O)OCC)c(C)nc3cc(-c4cccc(-c5c(O[C@@H](C)C=C)ccc(C)c5F)c4)nn23)CC1, 19-membered ring, Grubbs II (0.1 eq)/CuI, DCE, 1.33 mM, 2.0 h) does the source give for `CCOC(=O)[C@@H](OC(C)(C)C)c1c(C)nc2cc3nn2c1N1CCC(C)(CC1)OC/C=C/[C@H](C)Oc1ccc(C)c(F)c1-c1cccc-3c1` here?
**A.** 94%

**Q.** For `CCOC(=O)[C@@H](OC(C)(C)C)c1c(C)nc2cc3nn2c1N1CCC(C)(CC1)OC/C=C/[C@H](C)Oc1ccc(F)cc1-c1cccc-3c1`, which ring closure, isolated yield ([1]; from C=CCOC1(C)CCN(c2c([C@H](OC(C)(C)C)C(=O)OCC)c(C)nc3cc(-c4cccc(-c5cc(F)ccc5O[C@@H](C)C=C)c4)nn23)CC1, 19-membered ring, Grubbs II (0.1 eq)/CuI, DCE, 1.36 mM, 2.0 h) is on record?
**A.** 67.3%

**Q.** For `CCOC(=O)[C@@H](OC(C)(C)C)c1c(C)nc2cc3nn2c1N1CCC(C)(CC1)OCC=CC[C@H](C)Oc1ccc(C(=O)OC)cc1-c1cccc-3c1`, which ring closure, isolated yield ([1]; from C=CCOC1(C)CCN(c2c([C@H](OC(C)(C)C)C(=O)OCC)c(C)nc3cc(-c4cccc(-c5cc(C(=O)OC)ccc5O[C@@H](C)CC=C)c4)nn23)CC1, 20-membered ring, Hoveyda-Grubbs II (0.1 eq)/CuI, DCE, 1.52 mM, 80.0 °C, 3.0 h) is on record?
**A.** 83%

**Q.** For `CCc1ccc2c(c1)-c1cccc(c1)-c1cc3nc(C)c([C@H](OC(C)(C)C)C(=O)OC)c(n3n1)N1CCC(C)(CC1)OCC=CC[C@H](C)O2`, which ring closure, crude yield [2] is on record?
**A.** 92%

**Q.** With `COC(=O)[C@@H](OC(C)(C)C)c1c(C)nc2cc3nn2c1N1CCC(C)(CC1)OC/C=C/C[C@H](C)Oc1cc(C)cc(F)c1-c1cccc-3c1` as the compound, how does the ring closure, isolated yield ([1]; from C=CCOC1(C)CCN(c2c([C@H](OC(C)(C)C)C(=O)OC)c(C)nc3cc(-c4cccc(-c5c(F)cc(C)cc5O[C@@H](C)CC=C)c4)nn23)CC1, 20-membered ring, Ru-SIMes catalyst (name truncated), 3.0 h) read?
**A.** 78%

**Q.** With `COC(=O)[C@@H](OC(C)(C)C)c1c(C)nc2cc3nn2c1N1CCC(C)(CC1)OCC=CC[C@H](C)Oc1cc(F)cc(F)c1-c1cccc-3c1` as the compound, how does the ring closure, isolated yield ([1]; from C=CCOC1(C)CCN(c2c([C@H](OC(C)(C)C)C(=O)OC)c(C)nc3cc(-c4cccc(-c5c(F)cc(F)cc5O[C@@H](C)CC=C)c4)nn23)CC1, 20-membered ring, Hoveyda-Grubbs II (2 x 0.05 eq), toluene, 1.26 mM, 80.0 °C, 3.0 h) read?
**A.** 48%

**Q.** Which EC50 (NL-RLuc virus) does the source give for `Cc1ccc2c(c1)-c1cccc(c1)-c1cc3nc(C)c([C@H](OC(C)(C)C)C(=O)O)c(n3n1)N1CCC(C)(CC1)O/C=C\CC[C@H](C)O2` [Example 19, (2S)-2-(tert-Butoxy)-2-[(22S,25Z)-4,17,22,28-tetramethyl-21,27-dioxa-1,5,7,8-tetraazahexacyclo[26.2.2.1^6,9.1^10,14.0^2,7.0^15,20]tetratriaconta-2,4,6(34),8,10(33),11,13,15(20),16,18,25-undecaen-3-yl]acetic acid] here?
**A.** 0.033 µM

**Q.** Which EC50 (NL-RLuc virus) does the source give for `Cc1ccc2c(c1)-c1cccc(c1)-c1cc3nc(C)c([C@H](OC(C)(C)C)C(=O)O)c(n3n1)N1CCC(C)(CCCCC[C@H](C)O2)CC1` [Example 21, (2S)-2-(tert-Butoxy)-2-[(22S)-4,17,22,28-tetramethyl-21-oxa-1,5,7,8-tetraazahexacyclo[26.2.2.1^6,9.1^10,14.0^2,7.0^15,20]tetratriaconta-2,4,6(34),8,10(33),11,13,15(20),16,18-decaen-3-yl]acetic acid] here?
**A.** 0.15 µM

**Q.** For `Cc1nc2cc3nn2c(c1[C@H](OC(C)(C)C)C(=O)O)N1CCC(C)(CC1)OCCCC[C@H](C)Oc1ccc(C(=O)NCCC(C)(C)C)cc1-c1cccc-3c1` [Example 25, (2S)-2-(tert-Butoxy)-2-[(22S)-17-[(3,3-dimethylbutyl)carbamoyl]-4,22,28-trimethyl-21,27-dioxa-1,5,7,8-tetraazahexacyclo[26.2.2.1^6,9.1^10,14.0^2,7.0^15,20]tetratriaconta-2,4,6(34),8,10(33),11,13,15(20),16,18-decaen-3-yl]acetic acid], which EC50 (NL-RLuc virus) is on record?
**A.** 0.004 µM

**Q.** With `Cc1nc2cc3nn2c(c1[C@H](OC(C)(C)C)C(=O)O)N1CCC(C)(CC1)OCCCC[C@H](C)Oc1cc(F)ccc1-c1ccc(F)c-3c1` [Example 26, (2S)-2-(tert-Butoxy)-2-[(22S)-11,18-difluoro-4,22,28-trimethyl-21,27-dioxa-1,5,7,8-tetraazahexacyclo[26.2.2.1^6,9.1^10,14.0^2,7.0^15,20]tetratriaconta-2,4,6(34),8,10(33),11,13,15(20),16,18-decaen-3-yl]acetic acid] as the compound, how does the EC50 (NL-RLuc virus) read?
**A.** 0.049 µM

**Q.** With `Cc1nc2cc3nn2c(c1[C@H](OC(C)(C)C)C(=O)O)N1CCC(C)(CC1)OCCCC[C@H](C)Oc1cc(F)ccc1-c1cc(F)cc-3c1` [Example 27, (2S)-2-(tert-Butoxy)-2-[(22S)-12,18-difluoro-4,22,28-trimethyl-21,27-dioxa-1,5,7,8-tetraazahexacyclo[26.2.2.1^6,9.1^10,14.0^2,7.0^15,20]tetratriaconta-2,4,6(34),8,10(33),11,13,15(20),16,18-decaen-3-yl]acetic acid] as the compound, how does the EC50 (NL-RLuc virus) read?
**A.** 0.045 µM

**Q.** With `Cc1nc2cc3nn2c(c1[C@H](OC(C)(C)C)C(=O)O)N1CCC(C)(CC1)OCCCC[C@H](C)Oc1cc(F)ccc1-c1cc-3ccc1F` [Example 28, (2S)-2-(tert-Butoxy)-2-[(22S)-13,18-difluoro-4,22,28-trimethyl-21,27-dioxa-1,5,7,8-tetraazahexacyclo[26.2.2.1^6,9.1^10,14.0^2,7.0^15,20]tetratriaconta-2,4,6(34),8,10(33),11,13,15(20),16,18-decaen-3-yl]acetic acid] as the compound, how does the EC50 (NL-RLuc virus) read?
**A.** 0.027 µM
